Values of other authors as cited in patent US12396965B2, “Putrescine topical barrier formulation” (VIVIER CANADA INC., priority 2017, dated 2025).

Legend:
epidermis of eroded skin = settings: animals and human, topical
[1] = target: fibroblast tissue transglutaminase (Homo sapiens, UniProt P21980); settings: in vitro and in vivo; topical; compared to controls
Chain of fibroblast tissue transglutaminase (P21980 whole entry): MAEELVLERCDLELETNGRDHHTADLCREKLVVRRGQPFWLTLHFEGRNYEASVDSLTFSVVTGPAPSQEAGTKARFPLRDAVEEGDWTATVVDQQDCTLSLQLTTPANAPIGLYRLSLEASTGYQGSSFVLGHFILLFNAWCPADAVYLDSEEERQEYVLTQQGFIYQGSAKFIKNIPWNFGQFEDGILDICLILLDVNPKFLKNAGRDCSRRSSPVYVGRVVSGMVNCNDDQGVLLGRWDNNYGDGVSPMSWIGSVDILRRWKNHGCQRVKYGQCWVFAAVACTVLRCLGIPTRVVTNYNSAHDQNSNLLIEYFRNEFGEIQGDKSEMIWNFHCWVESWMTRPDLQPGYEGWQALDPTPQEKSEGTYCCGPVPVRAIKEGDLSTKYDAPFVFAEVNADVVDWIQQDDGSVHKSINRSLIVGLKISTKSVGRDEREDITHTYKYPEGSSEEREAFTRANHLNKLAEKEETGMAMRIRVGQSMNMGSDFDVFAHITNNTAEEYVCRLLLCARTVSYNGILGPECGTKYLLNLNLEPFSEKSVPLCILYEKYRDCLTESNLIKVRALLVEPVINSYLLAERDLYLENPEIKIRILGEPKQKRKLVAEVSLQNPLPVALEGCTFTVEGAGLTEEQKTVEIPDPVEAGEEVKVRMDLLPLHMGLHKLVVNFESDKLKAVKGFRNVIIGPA

For `NCCCCN` [Putrescine, 1,4-diaminobutane], the “barrier function of the epidermis and thickness of the stratum lucidum / inner strata of human epidermis” value (epidermis of eroded skin) is given as “increasing its barrier function as well as the thickness of the stratum lucidum” and the collagen cross-linking [1] is given as “reduce collagen cross-linking”.
